Experimental data published in ChEMBL document CHEMBL1201862, “PubChem BioAssay data set” (2004).
Activity calls are given as the source filed them.

Tests used:
[1] = cells
[2] = A cytotoxicity screen of small molecule inhibitors of the PhoP region in Salmonella typhi identified in the primary screen. [Related pubchem assays: 1850, 1864, 1985 ]; format: functional
[3] = HEp-2 cell cytotoxicity, dose response, cytotoxicity control for RSV inhibitor project, HTS (AID 2410); format: functional; details: human respiratory syncytial virus
[4] = target: T1, Leucine aminopeptidase (Plasmodium falciparum 3D7, UniProt Q8IL11); experiment: P. falciparum M17LAP inhibitors, primary screen, biochemical, fluorogenic H-Leu-NHMec substrate, 1536-well (AID 1619); format: functional
T1 sequence (Q8IL11 whole entry): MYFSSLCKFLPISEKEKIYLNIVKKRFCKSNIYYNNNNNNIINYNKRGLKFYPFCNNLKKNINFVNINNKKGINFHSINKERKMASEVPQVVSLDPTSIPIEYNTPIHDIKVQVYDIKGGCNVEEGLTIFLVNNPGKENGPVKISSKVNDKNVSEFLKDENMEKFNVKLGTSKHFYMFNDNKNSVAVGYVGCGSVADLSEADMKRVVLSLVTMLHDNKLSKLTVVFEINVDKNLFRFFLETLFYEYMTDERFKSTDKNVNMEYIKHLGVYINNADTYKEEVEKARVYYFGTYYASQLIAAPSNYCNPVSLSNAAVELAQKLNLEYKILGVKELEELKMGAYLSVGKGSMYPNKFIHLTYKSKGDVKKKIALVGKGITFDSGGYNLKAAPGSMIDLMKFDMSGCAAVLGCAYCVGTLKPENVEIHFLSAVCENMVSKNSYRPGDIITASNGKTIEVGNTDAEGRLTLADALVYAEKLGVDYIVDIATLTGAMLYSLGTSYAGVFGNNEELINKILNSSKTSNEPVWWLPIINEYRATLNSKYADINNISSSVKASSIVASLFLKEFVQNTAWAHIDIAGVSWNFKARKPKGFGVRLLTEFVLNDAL

[5] = target: Large T antigen (Simian virus 40, UniProt P03070); format: functional, Betapolyomavirus macacae;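 further: Confirmatory-stage PubChem screen for compounds that inhibit SV40 T antigen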
Large T antigen, sequence (P03070 whole entry): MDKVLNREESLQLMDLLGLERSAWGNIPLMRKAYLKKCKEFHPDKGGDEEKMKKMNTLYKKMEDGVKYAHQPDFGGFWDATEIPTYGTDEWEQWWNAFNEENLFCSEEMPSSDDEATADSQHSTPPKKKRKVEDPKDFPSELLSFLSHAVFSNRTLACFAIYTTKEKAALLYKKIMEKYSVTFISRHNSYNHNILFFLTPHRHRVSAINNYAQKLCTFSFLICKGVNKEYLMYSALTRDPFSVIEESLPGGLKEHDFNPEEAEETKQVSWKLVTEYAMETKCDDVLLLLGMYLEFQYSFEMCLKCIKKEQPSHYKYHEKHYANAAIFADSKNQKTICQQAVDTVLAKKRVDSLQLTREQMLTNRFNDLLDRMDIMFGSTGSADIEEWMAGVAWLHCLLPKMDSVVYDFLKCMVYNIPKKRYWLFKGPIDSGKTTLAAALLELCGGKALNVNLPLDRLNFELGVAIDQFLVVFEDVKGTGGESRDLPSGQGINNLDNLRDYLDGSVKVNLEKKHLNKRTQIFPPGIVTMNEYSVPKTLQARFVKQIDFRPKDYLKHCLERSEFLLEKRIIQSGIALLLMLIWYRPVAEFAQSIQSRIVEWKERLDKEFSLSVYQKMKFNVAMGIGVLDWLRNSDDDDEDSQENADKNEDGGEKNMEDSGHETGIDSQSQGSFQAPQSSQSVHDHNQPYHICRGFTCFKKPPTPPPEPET

[6] = target: T2, Lysine-specific demethylase 4C (Homo sapiens, UniProt Q9H3R0); experiment: GASC-1 (JMJD2C) histone demethylase inhibitors, dose response, biochemical, DELFIA europium, cherry-picked samples (AID 488835); format: functional
T2 sequence (Q9H3R0 whole entry): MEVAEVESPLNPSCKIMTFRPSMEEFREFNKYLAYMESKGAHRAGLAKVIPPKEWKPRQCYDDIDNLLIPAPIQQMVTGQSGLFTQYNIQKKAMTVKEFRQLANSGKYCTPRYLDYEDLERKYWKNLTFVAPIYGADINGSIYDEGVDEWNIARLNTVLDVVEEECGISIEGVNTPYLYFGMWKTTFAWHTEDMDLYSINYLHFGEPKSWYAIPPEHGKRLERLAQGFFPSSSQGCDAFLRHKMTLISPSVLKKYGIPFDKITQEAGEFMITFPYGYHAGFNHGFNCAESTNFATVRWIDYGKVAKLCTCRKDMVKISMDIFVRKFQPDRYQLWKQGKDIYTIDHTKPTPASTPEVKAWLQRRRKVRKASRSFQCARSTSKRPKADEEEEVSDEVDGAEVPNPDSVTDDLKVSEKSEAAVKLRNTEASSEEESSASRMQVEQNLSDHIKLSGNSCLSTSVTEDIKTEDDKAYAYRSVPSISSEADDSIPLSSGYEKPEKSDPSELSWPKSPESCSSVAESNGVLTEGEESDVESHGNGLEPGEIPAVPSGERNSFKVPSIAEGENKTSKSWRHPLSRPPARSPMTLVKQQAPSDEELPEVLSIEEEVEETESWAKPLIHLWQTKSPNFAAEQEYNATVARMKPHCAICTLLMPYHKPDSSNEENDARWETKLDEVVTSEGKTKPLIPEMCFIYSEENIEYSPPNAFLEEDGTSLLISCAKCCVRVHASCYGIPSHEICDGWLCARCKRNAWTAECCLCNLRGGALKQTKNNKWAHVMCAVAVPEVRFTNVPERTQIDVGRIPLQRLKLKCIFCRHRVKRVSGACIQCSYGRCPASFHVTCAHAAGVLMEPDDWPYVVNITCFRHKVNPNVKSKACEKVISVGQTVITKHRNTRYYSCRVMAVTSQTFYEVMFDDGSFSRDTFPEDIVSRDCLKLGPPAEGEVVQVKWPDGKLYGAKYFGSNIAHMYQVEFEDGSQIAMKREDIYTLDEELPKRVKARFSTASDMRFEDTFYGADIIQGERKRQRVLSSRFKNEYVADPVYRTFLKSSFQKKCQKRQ

[7] = target: T3, Streptokinase A (Streptococcus pyogenes serotype M1, UniProt P10520); experiment: S. pyogenes streptokinase expression inhibitors, potency, dose response, plasminogen activation absorbance, OD405 (AID 1914); format: functional, Streptococcus pyogenes M1 GAS;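 further: secreted streptokinase activity via plasminogen activation per viability signal from cell pellet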
T3 sequence (P10520 whole entry): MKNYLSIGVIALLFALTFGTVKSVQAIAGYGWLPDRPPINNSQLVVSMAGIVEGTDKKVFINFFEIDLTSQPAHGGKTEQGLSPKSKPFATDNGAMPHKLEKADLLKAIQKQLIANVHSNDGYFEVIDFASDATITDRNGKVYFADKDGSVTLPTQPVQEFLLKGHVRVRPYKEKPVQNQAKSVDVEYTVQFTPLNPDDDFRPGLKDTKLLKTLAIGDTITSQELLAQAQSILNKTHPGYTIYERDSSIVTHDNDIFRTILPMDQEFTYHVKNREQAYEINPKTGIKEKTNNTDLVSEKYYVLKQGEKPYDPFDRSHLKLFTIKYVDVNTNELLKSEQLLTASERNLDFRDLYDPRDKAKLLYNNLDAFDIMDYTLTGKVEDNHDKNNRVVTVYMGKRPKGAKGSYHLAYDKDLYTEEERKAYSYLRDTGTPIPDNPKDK

[8] = test system: Streptococcus sp. 'group A'; experiment: growth inhibition of control SK(-) GAS strain, dose response, counter-screen for streptokinase expression inhibitor project, luminescence, kanamycin, BacTiterGlo, confirmation (AID 1900); format: functional, organism-based
[9] = test system: Streptococcus; experiment: Group A Streptococcus viability loss, dose response, counter-screen for streptokinase expression inhibitor project, luminescence, BacTiterGlo (AID 1915); format: functional, organism-based;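 further: potency for reduction of bacterial viability or growth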
[10] = target: T4, Estrogen receptor (Homo sapiens, UniProt P03372);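 further: potency for inhibiting coactivator peptide recruitment to the receptor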
T4 sequence (P03372 whole entry): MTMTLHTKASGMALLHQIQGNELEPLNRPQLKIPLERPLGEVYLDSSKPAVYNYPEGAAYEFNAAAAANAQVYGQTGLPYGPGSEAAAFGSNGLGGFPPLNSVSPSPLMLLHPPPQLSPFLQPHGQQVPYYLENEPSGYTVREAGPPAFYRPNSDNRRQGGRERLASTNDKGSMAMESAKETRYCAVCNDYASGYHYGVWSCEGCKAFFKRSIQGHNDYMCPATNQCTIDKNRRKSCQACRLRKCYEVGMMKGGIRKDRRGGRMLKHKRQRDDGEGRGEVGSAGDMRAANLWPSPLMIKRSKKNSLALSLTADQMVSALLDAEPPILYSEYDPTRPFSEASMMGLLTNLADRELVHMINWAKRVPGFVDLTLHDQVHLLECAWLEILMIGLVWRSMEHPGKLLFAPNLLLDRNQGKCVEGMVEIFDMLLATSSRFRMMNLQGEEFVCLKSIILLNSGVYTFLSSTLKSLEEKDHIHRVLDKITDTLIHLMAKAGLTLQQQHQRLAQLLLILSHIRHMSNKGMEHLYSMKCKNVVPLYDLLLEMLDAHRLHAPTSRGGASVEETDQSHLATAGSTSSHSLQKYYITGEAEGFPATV

[11] = test system: H9c2; experiment: cells; format: functional, cell-based; details: Rattus norvegicus, H9c2, Myocardium;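 further: confirmatory concentration-response retest of ultra-high-throughput screening hits for modulation of myocardial damage; cell death induced by hydrogen peroxide oxidative stress; compound pretreatment for 60 min then peroxide exposure for 2 h; potency is for protecting the cells against peroxide damage rather than for killing them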
[12] = target: T5, Corticotropin-releasing factor receptor 2/Corticotropin-releasing factor-binding protein (Homo sapiens, UniProt P24387+Q13324); experiment: activators of CRF receptor 2 with binding protein – uHTS hits, confirmation (AID 602473); format: functional; details: read-out: EC50_Mean
T5 sequence (Q13324 whole entry): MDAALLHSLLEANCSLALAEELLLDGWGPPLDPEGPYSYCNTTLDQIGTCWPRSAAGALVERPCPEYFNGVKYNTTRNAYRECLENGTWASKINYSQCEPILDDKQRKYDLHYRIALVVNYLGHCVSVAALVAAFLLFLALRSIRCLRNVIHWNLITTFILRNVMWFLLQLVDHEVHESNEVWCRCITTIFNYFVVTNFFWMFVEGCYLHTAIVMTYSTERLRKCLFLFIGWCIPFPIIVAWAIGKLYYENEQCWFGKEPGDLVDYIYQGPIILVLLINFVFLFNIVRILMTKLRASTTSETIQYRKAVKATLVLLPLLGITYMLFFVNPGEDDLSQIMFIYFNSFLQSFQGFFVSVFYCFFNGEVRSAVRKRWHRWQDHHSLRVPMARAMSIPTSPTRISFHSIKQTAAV
T5 sequence (P24387 whole entry): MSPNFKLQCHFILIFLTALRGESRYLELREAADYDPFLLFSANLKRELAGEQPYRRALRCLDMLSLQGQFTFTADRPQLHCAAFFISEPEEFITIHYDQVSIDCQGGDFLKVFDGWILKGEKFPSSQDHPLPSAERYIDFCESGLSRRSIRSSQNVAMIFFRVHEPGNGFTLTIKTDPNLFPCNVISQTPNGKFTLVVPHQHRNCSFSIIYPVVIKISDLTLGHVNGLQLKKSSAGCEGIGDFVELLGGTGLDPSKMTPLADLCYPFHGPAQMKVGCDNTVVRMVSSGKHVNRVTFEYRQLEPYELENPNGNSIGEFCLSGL

[13] = target: T6, High affinity choline transporter 1 (Homo sapiens, UniProt Q9GZV3); experiment: CHT inhibitors, dose response, cell-based, 5-point CRC, membrane potential dye (AID 504840); format: functional
T6 sequence (Q9GZV3 whole entry): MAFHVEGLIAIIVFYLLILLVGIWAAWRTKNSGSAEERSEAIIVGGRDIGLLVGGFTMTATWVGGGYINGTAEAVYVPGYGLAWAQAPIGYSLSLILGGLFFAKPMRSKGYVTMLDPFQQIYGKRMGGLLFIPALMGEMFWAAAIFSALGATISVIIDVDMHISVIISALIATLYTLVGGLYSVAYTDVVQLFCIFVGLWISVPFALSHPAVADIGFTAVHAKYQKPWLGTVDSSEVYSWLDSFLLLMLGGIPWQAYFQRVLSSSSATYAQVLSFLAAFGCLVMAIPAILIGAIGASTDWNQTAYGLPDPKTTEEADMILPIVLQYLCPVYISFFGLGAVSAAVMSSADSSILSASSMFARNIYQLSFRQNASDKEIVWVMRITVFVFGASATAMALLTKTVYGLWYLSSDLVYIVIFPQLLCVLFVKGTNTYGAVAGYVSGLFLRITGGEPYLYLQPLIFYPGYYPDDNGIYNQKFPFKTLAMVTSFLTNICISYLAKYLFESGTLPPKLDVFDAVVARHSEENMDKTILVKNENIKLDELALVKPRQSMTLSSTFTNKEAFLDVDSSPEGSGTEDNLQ

[14] = target: Glyceraldehyde-3-phosphate dehydrogenase (Homo sapiens, UniProt P04406)
Glyceraldehyde-3-phosphate dehydrogenase, sequence (P04406 whole entry): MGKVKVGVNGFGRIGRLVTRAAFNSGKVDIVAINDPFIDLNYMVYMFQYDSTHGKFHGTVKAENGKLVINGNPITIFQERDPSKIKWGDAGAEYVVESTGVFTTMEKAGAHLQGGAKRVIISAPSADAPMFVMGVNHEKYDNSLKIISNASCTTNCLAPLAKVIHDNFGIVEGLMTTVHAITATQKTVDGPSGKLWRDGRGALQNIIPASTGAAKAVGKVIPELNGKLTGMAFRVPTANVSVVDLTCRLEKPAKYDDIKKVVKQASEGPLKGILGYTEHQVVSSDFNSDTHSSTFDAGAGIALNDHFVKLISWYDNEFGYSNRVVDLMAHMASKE

COc1ccc2[nH]cc(C(=O)CN3CCN(C4CCCCC4)CC3)c2c1
IC50 [1]: 36.6 µM (active)

CCOc1ccc(NC(S)=Nc2cc(C)[nH]n2)cc1
EC50 [2]: > 50 µM (active)

CCOc1ccc(N2C(=O)C(CC(=O)Nc3ccc(F)cc3)N(Cc3ccccn3)C2=S)cc1 (centres undefined)
IC50 [1]: 23.9 µM (active)
CC50 [3]: 32.9 µM (active)

CC(=O)c1cc2c(O)c(O)ccc2o1
IC50 [4]: 75.4 µM (active)
IC50 [5]: 18.5 µM (active)
AC50 [6]: 9.2 µM (active)

O=C(CN1C(=O)c2ccccc2C1=O)Nc1ccc2c(c1)OCO2
IC50 [4]: 9.43 µM (active)

N#CC(C(=O)C12CC3CC(CC(C3)C1)C2)c1nc2ccccc2[nH]1 (centres undefined)
EC50 [7]: 66 µM (active)
EC50 [8]: 5.14 µM (active)
EC50 [2]: > 50 µM (active)
EC50 [9]: > 150 µM (not active)

COc1cc(/C=c2\s/c(=C(/C#N)C(=O)N3CCCC3)n(-c3ccccc3)c2=O)ccc1O
IC50 [10]: > 50 µM (not active)
IC50 [11]: > 79 µM (inactive)
EC50 [12]: 8.71 µM (active)

COc1cc(/C=N/NC(=O)COc2c(C)cc([N+](=O)[O-])cc2C)ccc1OC(=O)c1ccccc1
IC50 [1]: 17.9 µM (active)
CC50 [3]: 41.7 µM (active)

Cc1cc(CN(C)C(=O)c2cc(COc3ccc(F)cc3Cl)on2)n[nH]1
IC50 [13]: 9.89 µM (active)
IC50 [1]: 24.6 µM (active)
CC50 [3]: 39.1 µM (active)

COc1cc2[nH]c(=S)n(CC3CCCO3)c(=O)c2cc1OC (centres undefined)
EC50 [2]: > 50 µM (active)

Cc1nc(SCC(=O)Nc2ccc3c(c2)OCCO3)nc(C)c1C
IC50 [4]: 43.5 µM (active)

CC(=O)Oc1ccc(-c2cccc(C(=O)NCC(=O)O)c2)cc1
IC50 [14]: > 100 µM (not active)

O=C(CN1C2=NCCCN2c2ccccc21)c1ccc2c(c1)OCO2
EC50 [2]: > 50 µM (active)
